# Experimental data published in patent publication US20110098257A1, “DERIVATIVES OF 4- OR 5-AMINOSALICYLIC ACID” (ANTIBE THERAPEUTICS INC., priority 2005, published 2011).
# Experiments:
# [1] = tested on: mRNA for several pro-inflammatory cytokines and chemokines; assay: Colonic mRNA expression by RT-PCR in TNBS-induced colitis; format: in vivo, mice; details: dose equimolar to mesalamine 50 mg/kg; normalized to GAPDH, ratio to healthy controls
# Method: (§1) The same model was used as described above. In this example, the effects of mesalamine (50 mg/kg) were compared to those of equimolar doses of Compound XXXV. In addition to measuring the severity of colitis by measuring disease activity score and MPO activity, tissues were processed for measurement of a number of genes for inflammatory cytokines and other mediators.
# (§2) In particular, mRNA expression in mice of tumour necrosis factor-alpha (TNF-α), interferon gamma (IFN-[…]γ), colonic interleukin (IL)-1, IL-2, IL-10, IL-12 p40, RANTES, cyclooxygenase (COX)-1, COX-2, constitutive endothelial nitric oxide synthase (eNOS), and inducible NOS (iNOS) was measured as described in Wallace et al. (1999) Gastroenterology 117: 557-566, incorporated herein by reference.
# (§3) Briefly, reverse transcription-polymerase chain reaction (RT-PCR) was used to detect and quantify mRNA of the particular cytokine/chemokine/enzyme. Glyceraldehyde-3-phosphate dehydrogenase (GAPDH) was used as the “housekeeping gene” for mRNA expression (i.e., as an internal control). For each sample, the ratio of the amplification of the target gene to the amplification of GAPDH (expression of each is measured by performing densitometry on gels) was obtained. Comparisons were then made between the relative amplification (expression) of the target gene in tissues for the treatment groups in comparison to the expression in tissues from healthy controls. Thus, the data shown in FIGS. 7-14 represent the relative expression of the target gene (normalized to GAPDH expression) as a ratio to the expression in healthy controls.
# COX-1 mRNA = assay: as above; format: in vivo, mice; details: dose equimolar to mesalamine 50 mg/kg; FIG. 13
# Method: as §1, §2, §3
# iNOS mRNA = assay: as above; format: in vivo, mice; details: dose equimolar to mesalamine 50 mg/kg; FIG. 14
# Method: as §1, §2, §3
# eNOS mRNA = assay: as above; format: in vivo, mice; details: dose equimolar to mesalamine 50 mg/kg; FIG. 14
# Method: as §1, §2, §3
# [2] = tested on: mice having TNBS-induced colitis; assay: TNBS-induced colitis in mice (disease activity score, colonic MPO activity); format: in vivo, Balb/c mice
# Method: A standard experimental animal model of colitis induced by intracolonic administration of 2,4,6-trinitrobenzene sulfonic acid (TNBS) to mice is used in the following example. A detailed description of this model has been published (Santucci et al. (2003) Gastroenterology 124:1381-94) and is incorporated herein by reference. Briefly, 6-8 week old Balb/c mice were given TNBS intracolonically at a dose of 1.5 mg in 0.1 mL of 30% ethanol. The mice were randomized to the various treatment groups (n=6 per group). Beginning one hour later and continuing every 12 h for 5 days, the mice were treated orally with vehicle (1% carboxymethylcellulose (CMC)), 5-ASA (mesalamine) (25, 50 or 75 mg/kg) or with equimolar doses of 2-hydroxy-5-amino-benzoic acid 4-(thioxo-5H-[1,2]dithiol-3-yl)-phenyl ester hydrochloride (Compound XXXV) (130 mg/kg), or with […] (100 mg/kg), 50% (66 mg/kg) and 25% (33 mg/kg) of that dose. The mice were evaluated (blindly) on the final day of the study for the presence of diarrhea and fecal occult blood, and their body weights were measured. […] After sacrifice, a sample of the colon was excised for measurement of myeloperoxidase (MPO) activity, as a marker of granulocyte infiltration. All results were compared to those obtained with healthy mice as well.
# FIGS. 3 and 4 show the Disease Activity Index and MPO activity, respectively, using the same experimental animal model of colitis as described above, in which Compound XXXV (130 mg/kg) was compared to equimolar doses of its two constituents, mesalamine (50 mg/kg) and 5-p-hydroxyphenyl-[…] (ADT-OH) (80 mg/kg), and a mixture of mesalamine (50 mg/kg) and ADT-OH (80 mg/kg). *p<0.05 versus the vehicle-treated group. Each group consisted of at least 5 rats.
# FIGS. 6 and 7 show the Disease Activity Index and MPO, respectively, using the same experimental animal model of colitis as described above, in which Compound XXVII (100 mg/kg) was compared to equimolar doses of its two constituents, mesalamine (50 mg/kg) and 4-hydroxythiobenzamide (4-HTB) (50 mg/kg), mesalamine alone (50 mg/kg) and 4-HTB alone (50 mg/kg). *p<0.05 versus the vehicle-treated group. Each group consisted of at least 5 rats.
# as §1
compound,measurement,setting,value
"Nc1ccc(O)c(C(=O)Oc2ccc(-c3cc(=S)ss3)cc2)c1 [Compound XXXV, 5-Amino-2-hydroxy-benzoic acid 4-(5-thioxo-5H-[1,2]dithiol-3-yl)-phenyl ester]",expression of mRNA for pro-inflammatory cytokines and chemokines,[1],suppressed expression of mRNA for several pro-inflammatory cytokines and chemokines
same,COX-1 mRNA expression,COX-1 mRNA,suppressed
same,iNOS mRNA expression,iNOS mRNA,suppressed
same,eNOS mRNA expression,eNOS mRNA,suppressed
same,Disease Activity Index,"[2]; Compound XXXV 130 mg/kg vs mesalamine 50 mg/kg, ADT-OH 80 mg/kg and their mixture, FIG. 3","almost twice as effective as either mesalamine alone, ADT-OH alone or a mixture of mesalamine and ADT-OH"
same,MPO activity (granulocyte infiltration),"[2]; Compound XXXV 130 mg/kg, FIG. 4",significantly reduced inflammation
same,"every endpoint of FIGS. 7-14 (MPO activity, disease activity score, mRNA expression)","[2]; dose equimolar to mesalamine 50 mg/kg, compared with mesalamine",superior to mesalamine in every endpoint
same,Disease Activity Score,"[2]; dose-ranging, oral every 12 h for 5 days, equimolar doses of 50 mg/kg and 75 mg/kg, compared with mesalamine, FIG. 1",superior to mesalamine in reducing the activity score
same,myeloperoxidase (MPO) activity,"[2]; dose-ranging, oral every 12 h for 5 days, highest doses tested, FIG. 2",significantly reduced (almost in half)
